Results: patent publication US11168364B2, “Method and system for sequencing nucleic acids” (priority 2016, dated 2021)

Target: T1, Bsu DNA polymerase large fragment / primed template nucleic acid (Bacillus subtilis, UniProt O34996)
T1 construct: 350 U/ml Bsu DNA polymerase large fragment
T1 sequence (O34996 297-880 limits assumed): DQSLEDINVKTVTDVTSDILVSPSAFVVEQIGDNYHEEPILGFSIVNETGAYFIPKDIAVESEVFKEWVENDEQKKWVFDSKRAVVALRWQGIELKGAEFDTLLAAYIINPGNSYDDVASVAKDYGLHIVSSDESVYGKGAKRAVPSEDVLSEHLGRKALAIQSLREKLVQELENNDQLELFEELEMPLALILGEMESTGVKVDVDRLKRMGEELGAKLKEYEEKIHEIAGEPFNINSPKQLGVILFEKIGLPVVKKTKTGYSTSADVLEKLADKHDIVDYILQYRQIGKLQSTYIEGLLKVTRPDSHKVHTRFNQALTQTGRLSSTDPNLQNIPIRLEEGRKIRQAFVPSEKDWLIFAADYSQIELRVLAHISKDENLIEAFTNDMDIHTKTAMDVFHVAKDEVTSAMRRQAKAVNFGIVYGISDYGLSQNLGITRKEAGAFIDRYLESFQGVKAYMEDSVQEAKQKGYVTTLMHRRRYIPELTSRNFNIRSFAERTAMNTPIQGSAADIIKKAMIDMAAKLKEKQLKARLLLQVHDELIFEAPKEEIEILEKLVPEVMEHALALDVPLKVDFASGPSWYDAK
Test: Biolayer interferometry of polymerase binding to immobilized primed template with cognate or non-cognate nucleotide, salt titration (Example 19)
Conditions: for Ternary Complex Signal (Δλ, nm): dCTP (cognate); for Binary Complex Signal (Δλ, nm): dGTP (non-cognate)
Description: A FORTEBIO® (Menlo Park, Calif.) OCTET® instrument employing biolayer interferometry to measure binding reactions at the surface of a fiber optic tip was used in a multiwell plate format to investigate differential stability of binary and ternary complexes. Template strands biotinylated at their 5′-ends were used to immobilize the primed template nucleic acid onto fiber optic tips functionalized with streptavidin (SA) according to standard procedures. […] Tips were first equilibrated in a Tris-buffered solution containing 30 mM Tris-HCl (pH 8.0), and 0.1 mM EDTA before commencing the cycling protocol. Independent binding reactions for the two test nucleotides (i.e., cognate and non-cognate nucleotides) were carried out in the presence of concentrations of NaCl, KCl, or potassium glutamate that varied from 50 mM to 500 mM. […] In all instances, the reaction mixture used during the examination step contained Tris-HCl (pH 8.0), 0.01% Tween-20, 100 μg/ml BSA, 2 mM NiSO4, 350 U/ml Bsu DNA polymerase large fragment; and one of the nucleotides at a concentration of 100 μM (dCTP was used as a cognate nucleotide, and dGTP was used as a non-cognate nucleotide). Following each examination step, tips were exposed to a buffer containing 30 mM Tris-HCl (pH 8.0), 500 mM KCl, 2 mM EDTA and 0.05% Tween-20 for 20 seconds to strip enzyme complexes from the primed template nucleic acid. The stripping step was followed by a 15 second exposure to examination buffer without enzyme, dNTP or divalent cations to regenerate tips for the next cycle of examination. When using a single contacting step to effect binding of polymerase and nucleotide to the primed template nucleic acid, the binding step was 45 seconds long, with binding interactions being monitored continuously. This was accomplished by contacting the primed template nucleic acid with a single solution that included the polymerase and test nucleotide. Results from interferometry monitoring were analyzed to identify formation of ternary complexes (i.e., identifying cognate nucleotide) or binary complexes (i.e., identifying non-cognate nucleotide).

[1] = KCl 50 mM + fixed 160 mM potassium glutamate
[2] = KCl 75 mM + fixed 160 mM potassium glutamate
[3] = KCl 100 mM + fixed 160 mM potassium glutamate
[4] = KCl 125 mM + fixed 160 mM potassium glutamate
[5] = KCl 150 mM + fixed 160 mM potassium glutamate
[6] = KCl 175 mM + fixed 160 mM potassium glutamate
[7] = KCl 200 mM + fixed 160 mM potassium glutamate
[8] = KCl 225 mM + fixed 160 mM potassium glutamate
[9] = KCl 250 mM + fixed 160 mM potassium glutamate
[10] = KCl 275 mM + fixed 160 mM potassium glutamate
[11] = KCl 300 mM + fixed 160 mM potassium glutamate
[12] = KCl 325 mM + fixed 160 mM potassium glutamate
[13] = KCl 350 mM + fixed 160 mM potassium glutamate
[14] = KCl 375 mM + fixed 160 mM potassium glutamate
[15] = KCl 400 mM + fixed 160 mM potassium glutamate
[16] = KCl 425 mM + fixed 160 mM potassium glutamate
[17] = KCl 450 mM + fixed 160 mM potassium glutamate
[18] = KCl 475 mM + fixed 160 mM potassium glutamate
[19] = KCl 500 mM + fixed 160 mM potassium glutamate

For [Cl-].[K+] [KCl], the “Fold Enhancement (Ternary/Binary)” value (KCl 50 mM) was 1.03, the “Fold Enhancement (Ternary/Binary)” value [1] was 1.24 and the “Ternary Complex Signal (Δλ, nm)” value [1] was 1.57 nm. For the same compound, the “Binary Complex Signal (Δλ, nm)” value [1] was 1.27 nm, the “Ternary Complex Signal (Δλ, nm)” value (KCl 50 mM) was 2.98 nm and the “Binary Complex Signal (Δλ, nm)” value (KCl 50 mM) was 2.90 nm. The “Fold Enhancement (Ternary/Binary)” value (KCl 75 mM) was 0.97, the “Fold Enhancement (Ternary/Binary)” value [2] was 1.41 and the “Ternary Complex Signal (Δλ, nm)” value [2] was 1.49 nm. The “Binary Complex Signal (Δλ, nm)” value [2] was 1.06 nm, the “Ternary Complex Signal (Δλ, nm)” value (KCl 75 mM) was 2.59 nm and the “Binary Complex Signal (Δλ, nm)” value (KCl 75 mM) was 2.68 nm. The “Fold Enhancement (Ternary/Binary)” value (KCl 100 mM) was 1.00, the “Fold Enhancement (Ternary/Binary)” value [3] was 1.71 and the “Ternary Complex Signal (Δλ, nm)” value [3] was 1.52 nm. For the same compound, the “Binary Complex Signal (Δλ, nm)” value [3] was 0.89 nm, the “Ternary Complex Signal (Δλ, nm)” value (KCl 100 mM) was 2.29 nm and the “Binary Complex Signal (Δλ, nm)” value (KCl 100 mM) was 2.29 nm. The “Fold Enhancement (Ternary/Binary)” value (KCl 125 mM) was 0.98, the “Fold Enhancement (Ternary/Binary)” value [4] was 2.05 and the “Ternary Complex Signal (Δλ, nm)” value [4] was 1.44 nm. The “Binary Complex Signal (Δλ, nm)” value [4] was 0.70 nm, the “Ternary Complex Signal (Δλ, nm)” value (KCl 125 mM) was 1.93 nm and the “Binary Complex Signal (Δλ, nm)” value (KCl 125 mM) was 1.98 nm. The “Fold Enhancement (Ternary/Binary)” value (KCl 150 mM) was 1.00, the “Fold Enhancement (Ternary/Binary)” value [5] was 2.46 and the “Ternary Complex Signal (Δλ, nm)” value [5] was 1.40 nm. The “Binary Complex Signal (Δλ, nm)” value [5] was 0.57 nm, the “Ternary Complex Signal (Δλ, nm)” value (KCl 150 mM) was 1.67 nm and the “Binary Complex Signal (Δλ, nm)” value (KCl 150 mM) was 1.67 nm. For the same compound, the “Fold Enhancement (Ternary/Binary)” value (KCl 175 mM) was 0.99, the “Fold Enhancement (Ternary/Binary)” value [6] was 3.31 and the “Ternary Complex Signal (Δλ, nm)” value [6] was 1.30 nm. The “Binary Complex Signal (Δλ, nm)” value [6] was 0.39 nm, the “Ternary Complex Signal (Δλ, nm)” value (KCl 175 mM) was 1.41 nm and the “Binary Complex Signal (Δλ, nm)” value (KCl 175 mM) was 1.43 nm. The “Fold Enhancement (Ternary/Binary)” value (KCl 200 mM) was 1.08, the “Fold Enhancement (Ternary/Binary)” value [7] was 4.15 and the “Ternary Complex Signal (Δλ, nm)” value [7] was 1.19 nm. For the same compound, the “Binary Complex Signal (Δλ, nm)” value [7] was 0.29 nm, the “Ternary Complex Signal (Δλ, nm)” value (KCl 200 mM) was 1.30 nm and the “Binary Complex Signal (Δλ, nm)” value (KCl 200 mM) was 1.20 nm. For the same compound, the “Fold Enhancement (Ternary/Binary)” value (KCl 225 mM) was 1.17, the “Fold Enhancement (Ternary/Binary)” value [8] was 5.35 and the “Ternary Complex Signal (Δλ, nm)” value [8] was 1.12 nm. For the same compound, the “Binary Complex Signal (Δλ, nm)” value [8] was 0.21 nm, the “Ternary Complex Signal (Δλ, nm)” value (KCl 225 mM) was 1.20 nm and the “Binary Complex Signal (Δλ, nm)” value (KCl 225 mM) was 1.03 nm. The “Fold Enhancement (Ternary/Binary)” value (KCl 250 mM) was 1.35, the “Fold Enhancement (Ternary/Binary)” value [9] was 7.02 and the “Ternary Complex Signal (Δλ, nm)” value [9] was 0.98 nm. The “Binary Complex Signal (Δλ, nm)” value [9] was 0.14 nm, the “Ternary Complex Signal (Δλ, nm)” value (KCl 250 mM) was 1.11 nm and the “Binary Complex Signal (Δλ, nm)” value (KCl 250 mM) was 0.82 nm. The “Fold Enhancement (Ternary/Binary)” value (KCl 275 mM) was 1.51, the “Fold Enhancement (Ternary/Binary)” value [10] was 9.07 and the “Ternary Complex Signal (Δλ, nm)” value [10] was 0.88 nm. The “Binary Complex Signal (Δλ, nm)” value [10] was 0.10 nm, the “Ternary Complex Signal (Δλ, nm)” value (KCl 275 mM) was 1.02 nm and the “Binary Complex Signal (Δλ, nm)” value (KCl 275 mM) was 0.67 nm. The “Fold Enhancement (Ternary/Binary)” value (KCl 300 mM) was 2.04, the “Fold Enhancement (Ternary/Binary)” value [11] was 8.34 and the “Ternary Complex Signal (Δλ, nm)” value [11] was 0.76 nm. The “Binary Complex Signal (Δλ, nm)” value [11] was 0.09 nm, the “Ternary Complex Signal (Δλ, nm)” value (KCl 300 mM) was 0.96 nm and the “Binary Complex Signal (Δλ, nm)” value (KCl 300 mM) was 0.47 nm. For the same compound, the “Fold Enhancement (Ternary/Binary)” value (KCl 325 mM) was 1.97, the “Fold Enhancement (Ternary/Binary)” value [12] was 8.97 and the “Ternary Complex Signal (Δλ, nm)” value [12] was 0.65 nm. The “Binary Complex Signal (Δλ, nm)” value [12] was 0.07 nm, the “Ternary Complex Signal (Δλ, nm)” value (KCl 325 mM) was 0.71 nm and the “Binary Complex Signal (Δλ, nm)” value (KCl 325 mM) was 0.36 nm. The “Fold Enhancement (Ternary/Binary)” value (KCl 350 mM) was 3.72, the “Fold Enhancement (Ternary/Binary)” value [13] was 7.94 and the “Ternary Complex Signal (Δλ, nm)” value [13] was 0.54 nm. The “Binary Complex Signal (Δλ, nm)” value [13] was 0.07 nm, the “Ternary Complex Signal (Δλ, nm)” value (KCl 350 mM) was 0.64 nm and the “Binary Complex Signal (Δλ, nm)” value (KCl 350 mM) was 0.17 nm. For the same compound, the “Fold Enhancement (Ternary/Binary)” value (KCl 375 mM) was 3.21, the “Fold Enhancement (Ternary/Binary)” value [14] was 12.46 and the “Ternary Complex Signal (Δλ, nm)” value [14] was 0.45 nm. The “Binary Complex Signal (Δλ, nm)” value [14] was 0.04 nm, the “Ternary Complex Signal (Δλ, nm)” value (KCl 375 mM) was 0.49 nm and the “Binary Complex Signal (Δλ, nm)” value (KCl 375 mM) was 0.15 nm. The “Fold Enhancement (Ternary/Binary)” value (KCl 400 mM) was 9.48, the “Fold Enhancement (Ternary/Binary)” value [15] was 13.75 and the “Ternary Complex Signal (Δλ, nm)” value [15] was 0.37 nm. For the same compound, the “Binary Complex Signal (Δλ, nm)” value [15] was 0.03 nm, the “Ternary Complex Signal (Δλ, nm)” value (KCl 400 mM) was 0.39 nm and the “Binary Complex Signal (Δλ, nm)” value (KCl 400 mM) was 0.04 nm. For the same compound, the “Fold Enhancement (Ternary/Binary)” value (KCl 425 mM) was 85.77, the “Fold Enhancement (Ternary/Binary)” value [16] was 13.28 and the “Ternary Complex Signal (Δλ, nm)” value [16] was 0.31 nm. For the same compound, the “Binary Complex Signal (Δλ, nm)” value [16] was 0.02 nm, the “Ternary Complex Signal (Δλ, nm)” value (KCl 425 mM) was 0.28 nm and the “Binary Complex Signal (Δλ, nm)” value (KCl 425 mM) was 0.00 nm. The “Fold Enhancement (Ternary/Binary)” value (KCl 450 mM) was 16.47, the “Fold Enhancement (Ternary/Binary)” value [17] was 7.24 and the “Ternary Complex Signal (Δλ, nm)” value [17] was 0.25 nm. The “Binary Complex Signal (Δλ, nm)” value [17] was 0.03 nm, the “Ternary Complex Signal (Δλ, nm)” value (KCl 450 mM) was 0.19 nm and the “Binary Complex Signal (Δλ, nm)” value (KCl 450 mM) was 0.01 nm. The “Fold Enhancement (Ternary/Binary)” value (KCl 475 mM) was 4.89, the “Fold Enhancement (Ternary/Binary)” value [18] was 4.54 and the “Ternary Complex Signal (Δλ, nm)” value [18] was 0.22 nm. For the same compound, the “Binary Complex Signal (Δλ, nm)” value [18] was 0.05 nm, the “Ternary Complex Signal (Δλ, nm)” value (KCl 475 mM) was 0.14 nm and the “Binary Complex Signal (Δλ, nm)” value (KCl 475 mM) was 0.03 nm. For the same compound, the “Fold Enhancement (Ternary/Binary)” value (KCl 500 mM) was 2.69, the “Fold Enhancement (Ternary/Binary)” value [19] was 2.97 and the “Ternary Complex Signal (Δλ, nm)” value [19] was 0.21 nm. For the same compound, the “Binary Complex Signal (Δλ, nm)” value [19] was 0.07 nm, the “Ternary Complex Signal (Δλ, nm)” value (KCl 500 mM) was 0.09 nm and the “Binary Complex Signal (Δλ, nm)” value (KCl 500 mM) was 0.04 nm. The “salt concentration of maximum signal ratios for ternary over binary complexes” value (no glutamate salt) was “about 450 mM”.
